In patent US7189850B2, “Triaza-spiropiperidine derivatives” (Hoffmann-La Roche Inc., priority 2003, dated 2007):
Read-outs that look alike come from different tables or passages of the source.

How the values were obtained:
mGlyT-1b = target: T1, mGlyT-1b (Mus musculus, UniProt P28571); test: Glycine uptake inhibition assay (mGlyT-1b); format: cell-based
T1 sequence (P28571 1-651 isoform P28571-2): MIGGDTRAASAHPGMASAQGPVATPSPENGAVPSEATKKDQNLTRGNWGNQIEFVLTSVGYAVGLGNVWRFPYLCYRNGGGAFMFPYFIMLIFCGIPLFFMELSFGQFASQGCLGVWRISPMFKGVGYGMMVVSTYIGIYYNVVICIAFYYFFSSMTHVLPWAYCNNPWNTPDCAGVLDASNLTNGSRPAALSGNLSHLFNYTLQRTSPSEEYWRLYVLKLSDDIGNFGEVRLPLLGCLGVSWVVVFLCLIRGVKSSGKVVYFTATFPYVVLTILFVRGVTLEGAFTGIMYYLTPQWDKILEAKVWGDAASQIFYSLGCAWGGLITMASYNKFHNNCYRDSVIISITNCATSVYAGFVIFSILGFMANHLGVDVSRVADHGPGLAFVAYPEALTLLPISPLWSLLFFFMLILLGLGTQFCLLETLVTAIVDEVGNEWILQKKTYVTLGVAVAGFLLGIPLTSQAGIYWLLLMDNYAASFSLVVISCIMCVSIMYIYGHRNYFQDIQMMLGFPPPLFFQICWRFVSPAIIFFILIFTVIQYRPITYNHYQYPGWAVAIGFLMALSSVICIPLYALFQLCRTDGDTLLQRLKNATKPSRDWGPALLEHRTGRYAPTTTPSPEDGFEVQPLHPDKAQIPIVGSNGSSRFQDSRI

SMILES | IC50 (mGlyT-1b) | other results
Cc1ccc(C2CCCCC2N2CCC3(CC2)C(=O)NCN3c2ccc(F)cc2)cc1 (racemic) [Example 22, (rac,cis)-1-(4-Fluoro-phenyl)-8-(2-p-tolyl-cyclohexyl)-1,3,8-triaza-spiro[4.5]decan-4-one] | 29 nM | –
O=C1NCN(c2ccc(F)cc2)C12CCN(C1CCCCC1(O)c1ccc(F)cc1)CC2 (racemic) [Example 87, (rac,cis)-1-(4-Fluoro-phenyl)-8-[2-(4-fluoro-phenyl)-2-hydroxy-cyclohexyl]-1,3,8-triaza-spiro[4.5]decan-4-one] | 24 nM | –
Cc1ccccc1C1(O)CCCCC1N1CCC2(CC1)C(=O)NCN2c1ccccc1 (racemic) [Example 76, (rac,cis)-8-(2-Hydroxy-2-o-tolyl-cyclohexyl)-1-phenyl-1,3,8-triaza-spiro[4.5]decan-4-one] | 50 nM | –
O=C1NCN(c2ccccc2)C12CCN(C1CCCCC1(O)c1ccc(Cl)cc1)CC2 (racemic) [Example 78, (rac,cis)-8-[2-(4-Chloro-phenyl)-2-hydroxy-cyclohexyl]-1-phenyl-1,3,8-triaza-spiro[4.5]decan-4-one] | 86 nM | –
Cc1ccc(C2CCCCC2N2CCC3(CC2)C(=O)NCN3c2ccccc2)cc1 (racemic) [Example 8, (rac,cis)-1-Phenyl-8-(2-p-tolyl-cyclohexyl)-1,3,8-triaza-spiro[4.5]decan-4-one] | – | melting point: 174 to 176 °C
O=C1NCN(c2ccc(Cl)cc2)C12CCN(C1CCCCC1(O)c1ccc(Cl)cc1)CC2 (racemic) [Example 90, (rac,cis)-1-(4-Chloro-phenyl)-8-[2-(4-chloro-phenyl)-2-hydroxy-cyclohexyl]-1,3,8-triaza-spiro[4.5]decan-4-one] | 43 nM | –
O=C1NCN(c2ccc(Cl)cc2)C12CCN(C1CCCCC1(O)c1ccc(F)cc1)CC2 (racemic) [Example 89, (rac,cis)-1-(4-Chloro-phenyl)-8-[2-(4-fluoro-phenyl)-2-hydroxy-cyclohexyl]-1,3,8-triaza-spiro[4.5]decan-4-one] | 15 nM | –
O=C1NCN(c2ccc(Cl)c(Cl)c2)C12CCN(C1CCCCC1c1ccccc1)CC2 (racemic) [Example 59, (rac,cis)-1-(3,4-Dichloro-phenyl)-8-(2-phenyl-cyclohexyl)-1,3,8-triaza-spiro[4.5]decan-4-one] | 32 nM | –
O=C1NCN(c2ccccc2)C12CCN(C1CCCCC1c1ccccc1)CC2 (racemic) [Example 1, (rac,cis)-1-Phenyl-8-(2-phenyl-cyclohexyl)-1,3,8-triaza-spiro[4.5]decan-4-one] | – | melting point: 205 to 208 °C
O=C1NCN(c2ccccc2)C12CCN(C1CCCCC1(O)c1ccncc1)CC2 (racemic) [Example 77, (rac,cis) 8-(2-Hydroxy-2-pyridin-4-yl-cyclohexyl)-1-phenyl-1,3,8-triaza-spiro[4.5]decan-4-one] | 62 nM | –
COc1ccc(N2CNC(=O)C23CCN(C2CCCCC2(O)c2ccc(Cl)cc2)CC3)cc1 (racemic) [Example 92, (rac,cis)-8-[2-(4-Chloro-phenyl)-2-hydroxy-cyclohexyl]-1-(4-methoxy-phenyl)-1,3,8-triaza-spiro[4.5]decan-4-one] | 99 nM | –
O=C1NCN(c2ccccc2)C12CCN(C1CCCCC1(O)c1ccc(F)cc1)CC2 (racemic) [Example 75, (rac,cis)-8-[2-(4-Fluoro-phenyl)-2-hydroxy-cyclohexyl]-1-phenyl-1,3,8-triaza-spiro[4.5]decan-4-one] | 41 nM | –
O=C1NCN(c2ccc(F)cc2)C12CCN([C@H]1CCCC[C@H]1c1ccc(Cl)cc1)CC2 (racemic) [Example 17, (rac,cis)-8-[2-(4-Chloro-phenyl)-cyclohexyl]-1-(4-fluoro-phenyl)-1,3,8-triaza-spiro[4.5]decan-4-one] | 74 nM | –
Cc1ccc(N2CNC(=O)C23CCN(C2CCCCC2(O)c2ccc(F)cc2)CC3)cc1 (racemic) [Example 91, (rac,cis)-8-[2-(4-Fluoro-phenyl)-2-hydroxy-cyclohexyl]-1-p-tolyl-1,3,8-triaza-spiro[4.5]decan-4-one] | – | IC50 (mGlyT-1b; Flp-in-CHO cells stably transfected with mGlyT-1b cDNA, [3H]-glycine 60 nM and 25 μM non-radioactive glycine, 20 min preincubation at 22° C., read-out: IC50 at GlyT-1 (inhibition of glycine uptake)): 39 nM
O=C1NCN(c2ccccc2)C12CCN([C@H]1CCCC[C@H]1c1ccc(Cl)cc1)CC2 (racemic) [Example 11, (rac,cis)-8-[2-(4-Chloro-phenyl)-cyclohexyl]-1-phenyl-1,3,8-triaza-spiro[4.5]decan-4-one] | – | melting point: 204 to 206 °C
O=C1NCN(c2ccccc2)C12CCN(C1CCCCC1(O)c1ccccc1)CC2 (racemic) [Example 101, (rac,trans)-8-(2-Hydroxy-2-phenyl-cyclohexyl)-1-phenyl-1,3,8-triaza-spiro[4.5]decan-4-one] | 56 nM | –
O=C1NCN(c2ccc(F)cc2)C12CCN(C1CCCCC1(O)c1ccc(Cl)cc1)CC2 (racemic) [Example 88, (rac,cis)-8-[2-(4-Chloro-phenyl)-2-hydroxy-cyclohexyl]-1-(4-fluoro-phenyl)-1,3,8-triaza-spiro[4.5]decan-4-one] | 60 nM | –
O=C1NCN(c2ccccc2)C12CCN(C1CCCCC1c1ccccc1)CC2 (racemic) [Example 68, (rac,trans)-1-Phenyl-8-(2-phenyl-cyclohexyl)-1,3,8-triaza-spiro[4.5]decan-4-one] | – | melting point: 254 to 256 °C
O=C1NCN(c2ccccc2)C12CCN([C@H]1CCCC[C@H]1c1ccc(Cl)c(Cl)c1)CC2 (racemic) [Example 13, (rac,cis)-8-[2-(3,4-Dichloro-phenyl)-cyclohexyl]-1-phenyl-1,3,8-triaza-spiro[4.5]decan-4-one] | – | melting point: 198 to 200 °C
O=C1NCN(c2ccc(F)cc2)C12CCN(C1CCCCC1c1ccc(F)cc1)CC2 (racemic) [Example 24, (rac,cis)-1-(4-Fluoro-phenyl)-8-[2-(4-fluoro-phenyl)-cyclohexyl]-1,3,8-triaza-spiro[4.5]decan-4-one] | 67 nM | –
CC(C)CCN1CNC(=O)C12CCN(C1CCCCC1c1ccccc1)CC2 (racemic) [Example 54, (rac,cis)-1-(3-Methyl-butyl)-8-(2-phenyl-cyclohexyl)-1,3,8-triaza-spiro[4.5]decan-4-one] | 52 nM | –
O=C1NCN(c2ccccc2)C12CCN(C1COCCC1(O)c1ccccc1)CC2 (racemic) [Example 99, (rac,cis)-8-(4-Hydroxy-4-phenyl-tetrahydro-pyran-3-yl)-1-phenyl-1,3,8-triaza-spiro[4.5]decan-4-one] | 58 nM | –
O=C1NCN(c2ccccc2)C12CCN([C@H]1CCCC[C@H]1c1ccc(F)cc1)CC2 (racemic) [Example 10, (rac,cis)-8-[2-(4-Fluoro-phenyl)-cyclohexyl]-1-phenyl-1,3,8-triaza-spiro[4.5]decan-4-one] | – | melting point: 198 to 200 °C
O=C1NCN(c2ccccc2)C12CCN(C1CCOCC1(O)c1ccccc1)CC2 (racemic) [Example 100, (rac,cis)-8-(3-Hydroxy-3-phenyl-tetrahydro-pyran-4-yl)-1-phenyl-1,3,8-triaza-spiro[4.5]decan-4-one] | 90 nM | –
O=C1NCN(c2ccccc2)C12CCN(C1CCCCC1(O)c1ccccc1)CC2 (racemic) [Example 74, (rac,cis)-8-(2-Hydroxy-2-phenyl-cyclohexyl)-1-phenyl-1,3,8-triaza-spiro[4.5]decan-4-one] | 44 nM | –
